From patent US4347319A, “Microbiological epoxidation process” (priority 1980, dated 1982) come the findings set out here.

For assay [1], the system named is purified secondary alcohol dehydrogenase from Pichia sp. NRRL Y-11,328. Kind of assay: Substrate specificity, electron acceptor and stoichiometry of purified yeast SADH. In kind it is biochemical. To be noted: for oxidation by the purified enzyme: examined spectrophotometrically.
Assay [2] concerns purified secondary alcohol dehydrogenase (SADH) from Pseudomonas sp. ATCC 21439. Put plainly: Effect of metal-chelating agents and thio reagents on purified SADH. In kind it is biochemical. As to the method: Secondary alcohol dehydrogenase (SADH) from an obligate methanol utilizer, Pseudomonas sp. ATCC 21439 was purified as follows. […] 0.05 M sodium phosphate buffer, pH 7.0 with 0.5 mM dithiothretol (buffer A) and were disrupted sonically (5×1 min.). The crude extract was separated by centrifugation. The crude extract was heat-treated at 50° C. in a water bath for 10 minutes. The resulting precipitate was removed by centrifugation. To the supernatant solution, 25 ml of protamine sulfate solution (2% solution in 0.1 M Tris base) was added dropwise with continuous stirring. After standing for 30 minutes, the extract was centrifuged. The supernatant solution was fractionated with solid ammonium sulfate. […] This DEAE-cellulose eluate was concentrated by ammonium sulfate fractionation. Material precipitating between 30 and 50% ammonium sulfate saturation was collected by centrifugation and dialyzed overnight against A. This fraction was further washed and filtered through an Amicon unit with XM 50 membrane. The concentrated fraction (6 ml) inside the Amicon unit was applied to an Affi-Gel Blue column (0.8 cm×18 cm) which had been equilibrated with buffer A for affinity chromatography. The column was washed overnight with buffer A (0.18 ml./min.) and then was eluted with buffer A containing 5 mM NAD. Each 1 ml. fraction was collected.
The purified secondary alcohol dehydrogenase enzyme (SADH) may be used directly for converting C3 -C6 secondary alcohols to the corresponding methyl ketones by the procedures described above; however, a source of NAD^+ must be added to the reaction medium. One can determine the NAD-linked secondary alcohol dehydrogenase activity with a fluorescence spectrophotometer (Perkin Elmer, Model MPF 44A) by following the formation of reduced NAD (Ex 340 nm, Em 460 nm). The assay system (3 ml.) will typically contain: sodium phosphate buffer pH 7.0, 150 μmol; NAD 1.0 μmol; a given amount of enzyme preparation; and 20 μmol secondary alcohol. The reaction is started by the addition of secondary alcohol. One unit of SADH enzyme activity represents the reduction of one nmole NAD per minute.
The effect of metal-chelating agents and chioreagents on the activity of the purified SADH enzyme were studied. […] The possibility of ethanol or n-propanol as an inhibitor was studied.

The subject of assay [3] is Methylobacter vinelandii (CRL M5Y) NRRL B-11,218. Kind of assay: Oxidation by washed cell suspensions of methane-grown cells. In kind it is cell-based. To be noted: methane-grown washed cells. As to the method: (§1) The pH of the nutrient medium was adjusted to 7.0 by the addition of acid or base and 50 ml samples of the nutrient medium were charged into a plurality of 300 ml shaker flasks. The shaker flasks were inoculated with an inoculating loop of cells from an agar plate containing homogeneous colonies of the microorganisms on the plate (the purity of the isolates was confirmed by microscopic examination. The isolates had been maintained on agar plates under an atmosphere of methane and air having a 1:1 v/v gas ratio which had been transferred evey two weeks. The gaseous phase of the inoculated flasks was then replaced with a gas mixture comprised of methane and air having a ratio of 1:1 on a v/v basis. The inoculated flasks were sealed air tight and were incubated on a rotary shaker of orbital radius 2.5 cm at 250 rpm and at 30° C. for two days until turbidity in the medium had developed.
(§2) The cells were harvested by centrifugation at 10,000×g. at 4° C. for 30 minutes. The cell pellet was washed twice with a 0.15 M phosphate buffer at a pH of 7.0 (containing 0.002 M MgCl2). The washed cells were then suspended in a 0.15 M phosphate buffer at pH 7.0.
(§3) A 0.5 ml sample of each washed cell suspension (2 mg cells) was put into 10 ml vials at 4° C. which were sealed with a rubber cap. The gaseous phase of the vials was removed with vacuum and then was replaced with a gas mixture of the oxidative substrate (e.g., methane) and oxygen at a 1:1 v/v ratio. The vials were then incubated at 30 ° C. on a rotary shaker at 300 rpm. Samples of product (3 μl) were withdrawn periodically with a microsyringe and the products were analyzed by gas chromatography (ionization flame detector column).
(§4) The newly discovered and isolated microorganism strains of the present invention were each grown aerobically in the presence of methane in the manner described above. The methane-grown microbial cells were then washed, recovered and put to use in oxidizing an oxidative substrate by the procedure described above except in the case of a liquid substrate 10 μl of the substrate were used.

For assay [4], the target named is T1, cell fractions of Methylosinus sp. (CRL-15, NRRL B-11,202) (Methylosinus trichosporium, UniProt Q50541+Q9KX50+Q9KX51).
T1 sequence (Q9KX50 40-431): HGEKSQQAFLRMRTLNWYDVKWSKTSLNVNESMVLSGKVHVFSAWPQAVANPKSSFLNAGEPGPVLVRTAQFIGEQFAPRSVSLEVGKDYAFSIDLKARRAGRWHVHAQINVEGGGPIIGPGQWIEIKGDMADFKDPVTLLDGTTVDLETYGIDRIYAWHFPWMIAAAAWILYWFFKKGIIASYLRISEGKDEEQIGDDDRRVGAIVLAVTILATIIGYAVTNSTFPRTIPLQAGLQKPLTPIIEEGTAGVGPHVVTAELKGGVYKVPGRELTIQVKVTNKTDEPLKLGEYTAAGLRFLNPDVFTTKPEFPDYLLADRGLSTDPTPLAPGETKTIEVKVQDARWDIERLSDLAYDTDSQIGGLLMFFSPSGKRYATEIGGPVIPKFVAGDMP
T1 sequence (Q50541 1-252): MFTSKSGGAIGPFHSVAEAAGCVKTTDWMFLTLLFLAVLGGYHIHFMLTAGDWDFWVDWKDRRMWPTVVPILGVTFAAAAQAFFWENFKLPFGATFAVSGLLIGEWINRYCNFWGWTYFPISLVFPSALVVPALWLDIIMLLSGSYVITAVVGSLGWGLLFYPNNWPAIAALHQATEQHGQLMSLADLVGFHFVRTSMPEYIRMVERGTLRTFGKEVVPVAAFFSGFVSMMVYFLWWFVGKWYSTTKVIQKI
T1 sequence (Q9KX51 1-256): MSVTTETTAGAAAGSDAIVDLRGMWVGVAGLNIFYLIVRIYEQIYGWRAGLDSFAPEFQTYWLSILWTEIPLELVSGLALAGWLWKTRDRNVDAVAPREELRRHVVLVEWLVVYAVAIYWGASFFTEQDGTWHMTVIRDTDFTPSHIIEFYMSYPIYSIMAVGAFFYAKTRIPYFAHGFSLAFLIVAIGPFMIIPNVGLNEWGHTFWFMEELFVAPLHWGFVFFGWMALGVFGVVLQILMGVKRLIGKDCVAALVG
Kind of assay: Oxidation by cell fractions P(40), P(80), S(80). In kind it is biochemical. To be noted: P(40) particulate fraction; alkene to epoxide, alkane to alcohol; 30° C. As to the method: Cells were washed twice with 25 mM potassium phosphate buffer, pH 7.0 containing 5 mM MgCl2. Cells were suspended in the same buffer. The cell suspensions at 4° C. were disintegrated by a single passage through a French Pressure cell (15,000 lb./in.^2) and centrifuged at 5000×g. for 15 min. to remove unbroken bacteria. The supernatant solution (crude extract) was then centrifuged at 40,000×g. for 30 min., yielding particulate P(40) and soluble S(40) fractions. The S(40) fraction was subsequently centrifuged at 80,000×g. for 60 min., yielding particulate P(80) and soluble S(80) fractions. The particulate fractions [P(40) and P(80)] were suspended in 25 mM potassium phosphate buffer, pH 7.0, containing 5 mM MgCl2 and homogenized at 4° C.
The oxidation of methane and propylene by particulate [(P)40 and (P)80] fractions and soluble [S(80)] fraction was measured at 30° C. by estimating the production of methanol and propylene oxide, respectively. The reaction mixtures contained in […]: 150 mM potassium phosphate buffer, pH 7.0 containing 5 mM MgCl2 b, 0.6 ml; 10μ moles NADH, and cellular fraction.
Reaction mixtures were contained in 10 ml vials at 4° C. Vials were sealed with rubber caps. The gaseous phase in the vials was removed using vacuum and then was replaced with a gas mixture of methane or propylene and oxygen at a 1:1, v/v ratio. Oxidation of other gaseous n-alkanes and n-alkanes was examined as described above. For liquid substrates, 10 μl of substrate was used directly.
The products of epoxidation of n-alkenes and hydroxylation of n-alkanes were assayed by flame ionization gas chromatography using a stainless steel column (12'×1/8") packed with 10% Carbowax 20 M on 80/100 Chromosorb W and Porapak Q column. The column temperature was maintained isothermally at 120° C. The carrier gas flow rate was 30 ml/min. of helium. The various products were identified by retention time comparisons and co-chromatography with authentic standards.
Specific activities were expressed as μ moles of products formed per hour per mg. protein. Concentrations of protein in various fractions were determined by the method of Lowry et al., J. Biol. Chem., 193: 265-275 (1951).

In assay [5] the test system is Methylococcus capsulatus (CRL M1) NRRL B-11,219. Kind of assay: Oxidation by washed cell suspensions of methane-grown cells. It counts as cell-based. To be noted: methane-grown cell-suspension; pH 7.0; 3° C. Here is the method: as §1, §2, §3, §4
Assay [6] deals with Methylosinus trichosporium OB3b (NRRL B-11,196). Put plainly: Oxidation by cell suspensions of methane-grown cells. It counts as cell-based. To be noted: methane-grown cell-suspension; pH 7.0; 3° C.
For assay [7], the system named is purified secondary alcohol dehydrogenase (SADH) from Pseudomonas sp. ATCC 21439. Kind of assay: Kinetics and substrate specificity of purified SADH. In kind it is biochemical.
Where [8] appears, read: final concentration of 1 mM, measured spectrofluorometrically.

Read-outs that look alike come from different tables or passages of the source.

Take `CC(O)CO` (centres unmarked) [1,2-propandiol]: the “oxidation by the purified enzyme” value in assay [1] is recorded as “not oxidized”. In the case of `CCCCCC(C)O` (centres unmarked) [2-Heptanol], in assay [1], the “oxidation by the purified enzyme” value is given as “not oxidized”. `CCCCCCC(C)O` (centres unmarked) [2-octanol]: the “oxidation by the purified enzyme” value in assay [1] is listed as “not oxidized”.

For `O=C(O)c1cc(SSc2ccc([N+](=O)[O-])c(C(=O)O)c2)ccc1[N+](=O)[O-]` [5,5'-dithiobis(2-nitrobenzoic acid)], the “% inhibition of SADH activity” value in assay [2] (setting [8]) was determined as 100%. For `[Co+2]` [Co^++], in assay [2] (setting [8]), the “% inhibition of SADH activity” value worked out at 0%.

As to `C1CCCCC1` [Cyclohexane], the “conversion rate cyclohexane to cyclohexanol” value in assay [3] came to 1.5 μ moles/2 hr./mg. protein. Take `O=C(O)CN(CCN(CC(=O)O)CC(=O)O)CC(=O)O` [EDTA]: in assay [2], the “% inhibition of SADH activity” value came to 63%. In the case of `CC` [Ethane], the “Rate of Product Formation” value in assay [4] is 3.2 μ moles/hr/mg of protein. Besides, the figures for the “Conversion Rate to Ethanol” value in assay [5] and in assay [6] were 2.0 μmoles/hr./mg./protein and 1.3 μmoles/hr./mg./protein, respectively. For `[Mg+2]` [Mg^++], the “% inhibition of SADH activity” value in assay [2] (setting [8]) worked out at 0%. On the same count and under the same terms, the figure for `[Mn+2]` [Mn^++] is 0%. For the molecule `CCN1C(=O)C=CC1=O` [N-ethylmalemide], the “% inhibition of SADH activity” value in assay [2] (setting [8]) is on record as 6%. On the same count and under the same terms, the figure for `[N-]=[N+]=[N-]` [Sodium azide] is 10%; for `[Zn+2]` [Zn^++] it is 0%. As to `O=Cc1ccccc1` [benzaldehyde], the “oxidation by SADH” value in assay [7] was “not oxidized”. On to `c1ccccc1` [benzene], for which the “oxidative conversion” value in assay [3] is given as “no oxidative conversion was detected”.

For the molecule `CCCCO` [butan-1-ol], in assay [1], the “oxidation by the purified enzyme” value is “not oxidized”. Consider `CCC(O)CO` (centres unmarked) [butane 1,2-diol], for which, in assay [1], the “oxidation by the purified enzyme” value was “not oxidized”. In addition, in assay [7], the “oxidation by SADH” value was “not oxidized”. Turning to `CC(O)CCO` (centres unmarked) [butane 1,3-diol], in assay [1], the “oxidation by the purified enzyme” value is given as “not oxidized”.

`[Cu+2]` [cupric]: in assay [2] (setting [8]), the “% inhibition of SADH activity” value amounted to 25%. For the molecule `CCO` [ethanol], in assay [1], the “oxidation by the purified enzyme” value is listed as “not oxidized”. Consider `[Fe+3]` [ferric], for which the “% inhibition of SADH activity” value in assay [2] (setting [8]) is 35%. Take `[Fe+2]` [ferrous]: the “% inhibition of SADH activity” value in assay [2] (setting [8]) worked out at 50%. With `C=O` [formaldehyde], in assay [7], the “oxidation by SADH” value is reported as “not oxidized”. Turning to `O=C(O)CI` [iodoacetic acid], the “% inhibition of SADH activity” value in assay [2] is on record as 0%.

As for `CC(C)CO` [isobutanol], the “oxidation by SADH” value in assay [7] is reported as “not oxidized”. Take `CO` [methanol]: the “oxidation by the purified enzyme” value in assay [1] is listed as “not oxidized”. For the molecule `[Ni+2]` [nickel], the “% inhibition of SADH activity” value in assay [2] (setting [8]) is 20%.

Consider `CCCCCO` [pentan-1-ol], for which the “oxidation by the purified enzyme” value in assay [1] was “not oxidized”. For `Oc1ccccc1` [phenol], in assay [7], the “oxidation by SADH” value is “not oxidized”. For `CCCO` [propan-1-ol], in assay [1], the “oxidation by the purified enzyme” value is given as “not oxidized”. Further, the “inhibition of SADH activity” value in assay [2] is given as “did not inhibit”. On to `CCC=O` [propanal], for which the “relative percent rate of oxidation” value in assay [7] (2-butanol = 100%) is given as 2%. Consider `O=C(O)CCC(=O)O` [succinic acid], for which, in assay [7], the “oxidation by SADH” value was “not oxidized”.

As to `Cc1ccccc1` [toluene], the “oxidative conversion” value in assay [3] was “no oxidative conversion was detected”. cytochrome c: the “electron acceptor / carrier” value in assay [1] was “could not act as electron carrier”.
